Assays:
[1] = target: T1, human vasopressin V1a receptor (Homo sapiens, UniProt P37288); test: Functional assay on human vasopressin V1a receptor expressing cell line (intracellular Ca2+ fluorescence); format: cell-based; conditions: 1321N1 cells, (Arg8)-vasopressin at EC80; read-out: IC50 (nM) on hV1a cell line
Protocol: Functional Assay to Test Compounds on Human Vasopressin V1a Receptor Expressing Cell Line
The ordinary secondary messenger pathway of the measured GPCR receptor was used, the endogenous Gq-associated system.
Using 30,000 cells/plate, compounds were measured on 96-well plates. The buffer composition of the measurements was the following (expressed in mM): 140 NaCl, 5 KCl, 2 CaCl2), 2 MgCl2, 10 glucose, 10 HEPES (4-(2-hydroxyethyl)-1-piperazine-ethanesulfonic acid), 2 probenecid, pH=7.4. FLIPR Calcium 5 kit (Molecular Devices) was used as fluorescent dye, the medium was not removed prior to filling with the dye and the cells were not washed out either before or after. The incubation was performed at room temperature, the final concentration of DMSO was 1%. The materials to be measured were administered in 15 to 20 minutes pretreatment, at least two parallels of each compound in each concentration was measured.
Fluorescence signal was used to determine the intracellular Ca^2+ level, the reader was FlexStation II96. […] The fluorescence signal was logged in every 1.4 seconds for 1 minute. The reference compounds used were the following: (Arg^8)-vasopressin as agonist at concentration of EC80, determined for each plate, and relcovaptan as antagonist at 1 μM. The % of inhibition at each concentration and the IC50 value of the compounds were determined where a concentration line was also measured.
The total AVP concentration-response curve was recorded on each plate. The effect of compounds measured was expressed by percentage of relative inhibition compared to control response. […] The average IC50 values were calculated from at least three independent measurements in all cases.

[2] = target: T1, human vasopressin V1a receptor; test: Human vasopressin V1a receptor binding assay; conditions: for Ki: 1321N1 cell membranes, [3H]vasopressin, read-out: Ki (nM) on hV1a cell line
Protocol: Human Vasopressin V1a Receptor Binding Assay
Cells were suspended in preparative buffer (50 mM Tris, 1 mM EDTA, 0.1 mM PMSF) and homogenized with glass homogenizing potter. To separate the raw membrane fraction two consecutive centrifugation procedures (40,000 g for 20 minutes at 4° C.) were executed, then the membrane was taken into the preparatory buffer during a final washing step, it was divided into aliquots which were stored at −80° C. until the time of measurement.
To determine the final affinity value, the results of at least two independent experiments were taken into account.
Non-specific binding values were determined in the presence of unlabeled 1.2×10^−6 M (Arg^8)-vasopressin. Samples were incubated in a total volume of 0.33 ml for 60 minutes at 27° C. Membrane-bound and free ligands were separated by filtration through a 0.5% polyethyleneimine-impregnated UniFilter® GF/B™. After drying the filter plates, 40 μl Microscint-20 (Packard) scintillation cocktail was added to the samples. Finally, radioactivity was measured using MicroBeta^2 Microplate Counter (Perkin Elmer).
During fitting, the asymptotes are not fixed. The K values (inhibition constant) are given with Cheng-Prusoff equation Ki=IC50/[1+(L/KD)] wherein [L] is the radioligand concentration used in the experiment and [KD] is the affinity of the radioactively labelled ligand for the given receptor. The KD is determined beforehand using the Scatchard curve.

T1 sequence (P37288 whole entry): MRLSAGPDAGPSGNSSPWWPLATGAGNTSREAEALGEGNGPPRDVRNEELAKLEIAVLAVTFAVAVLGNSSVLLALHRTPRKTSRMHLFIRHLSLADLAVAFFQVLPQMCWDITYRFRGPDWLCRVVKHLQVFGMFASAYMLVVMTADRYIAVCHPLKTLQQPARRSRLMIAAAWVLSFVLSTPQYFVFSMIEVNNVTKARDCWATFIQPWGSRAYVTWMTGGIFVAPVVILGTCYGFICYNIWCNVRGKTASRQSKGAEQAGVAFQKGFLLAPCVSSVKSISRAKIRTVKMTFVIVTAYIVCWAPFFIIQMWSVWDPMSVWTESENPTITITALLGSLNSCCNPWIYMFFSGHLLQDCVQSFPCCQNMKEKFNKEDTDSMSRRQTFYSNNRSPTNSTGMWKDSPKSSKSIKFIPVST

Row | IC50 [1] | Ki [2] | % at 1 μM, printed in the column Ki (nM) on hV1a cell line ([2]; at 1 μM) | SMILES
1 | 0.9 nM | 0.2 nM | – | FC1Cc2cc(Cl)ccc2-n2c(nnc2[C@H]2CC[C@H](Oc3ccccn3)CC2)C1 (stereo partly drawn) [Example 206, 8-chloro-5-fluoro-1-[trans-4-(pyridin-2-yloxy)cyclohexyl]-5,6-dihydro-4H-[1,2,4]triazolo[4,3-a][1]benzazepine]
2 | 854 nM | 48 nM | – | CC1(C(=O)N[C@H]2Cc3cc(Cl)ccc3-n3c(nnc3[C@H]3CC[C@H](Oc4ccccn4)CC3)C2)COC1 [Example 225]
3 | 263 nM | 25 nM | – | CCO[C@]1(CC)CC[C@@H](c2nnc3n2-c2ccc(Cl)cc2CC(NC(C)C)C3)CC1 (stereo partly drawn) [Example 244, 8-chloro-1-(trans-4-ethoxy-4-ethylcyclohexyl)-N-(propan-2-yl)-5,6-dihydro-4H-[1,2,4]triazolo[4,3-a][1]benzazepin-5-amine]
4 | 30 nM | 5 nM | – | COC1Cc2cc(Cl)ccc2-n2c(nnc2[C@@H]2CCN(Cc3cccnc3)C2)C1 (stereo partly drawn) [Example 247]
5 | 2.3 nM | 0.9 nM | – | CC(C)(O)C(=O)N[C@@H]1Cc2cc(Cl)ccc2-n2c(nnc2[C@H]2CC[C@H](Oc3ccccn3)CC2)C1 [Example 169, N-{(5R)-8-chloro-1-[trans-4-(pyridin-2-yloxy)cyclohexyl]-5,6-dihydro-4H-[1,2,4]triazolo[4,3-a][1]benzazepin-5-yl}-2-hydroxy-2-methylpropanamide]
6 | 3.4 nM | 0.5 nM | – | Clc1ccc2c(c1)CC1(Cc3nnc([C@@H]4CCN(Cc5ccccn5)C4)n3-2)OCCO1 [Example 246, 8′-chloro-1′-[(3R)-1-(pyridin-2-ylmethyl)pyrrolidin-3-yl]-4′H,6′H-spiro[1,3-dioxolane-2,5′-[1,2,4]triazolo[4,3-a][1]benzazepine]]
7 | 4.2 nM | 0.5 nM | – | CC1(C(=O)N[C@@H]2Cc3cc(Cl)ccc3-n3c(nnc3[C@H]3CC[C@H](Oc4ccccn4)CC3)C2)COC1 [Example 226, N-{(5R)-8-chloro-1-[trans-4-(pyridin-2-yloxy)cyclohexyl]-5,6-dihydro-4H-[1,2,4]triazolo[4,3-a][1]benzazepin-5-yl}-3-methyloxetan-3-carboxamide]

Further lines, the compound ahead of its results:

Row | SMILES | IC50 [1] | Ki [2] | % at 1 μM, printed in the column Ki (nM) on hV1a cell line ([2]; at 1 μM)
8 | O=C1Cc2cc(Cl)ccc2-n2c(nnc2N2CCC3(CC2)OCc2ccccc23)C1 [Example 156, 8-chloro-1-(1′H,3H-spiro[2-benzofuran-1,4′-piperidin]-1′-yl)-4H-[1,2,4]triazolo[4,3-a][1]benzazepin-5(6H)-one] | 9.5 nM | 0.5 nM | –
9 | CN(C)C1Cc2ccccc2-n2c(nnc2[C@H]2CC[C@H](Oc3ccccn3)CC2)C1 (stereo partly drawn) [Example 148] | 26 nM | 1.2 nM | –
10 | O=C([C@H]1CC[C@H](c2nnc3n2-c2ccc(Cl)cc2CC2(C3)OCCO2)CC1)N1CCOCC1 [Example 108, Trans-4-(8′-chloro-4′H,6′H-spiro[1,3-dioxolane-2,5′-[1,2,4]triazolo[4,3-a][1]benzazepin]-1′-yl)cyclohexyl(morpholin-4-yl)methanone] | 4.9 nM | 0.2 nM | –
11 | CN1C[C@]2(CC[C@@H](c3nnc4n3-c3ccc(Cl)cc3CC3(C4)OCCO3)CC2)OC1=O [Example 75, (trans)-8-(8′-chloro-4′H, 6′H-spiro[1,3-dioxolane-2,5′-[1,2,4]triazolo[4,3-a][1]benzazepin]-1′-yl)-3-methyl-1-oxa-3-azaspiro[4.5]decan-2-one] | 10.4 nM | 3.7 nM | –
12 | CC(C)NC1Cc2cc(Cl)ccc2-n2c(nnc2C2CCC(F)(F)CC2)C1 (stereo not drawn) [Example 42, 8-chloro-1-(4,4-difluorocyclohexyl)-N-(propan-2-yl)-5,6-dihydro-4H-[1,2,4]triazolo[4,3-a][1]benzazepine-5-amine] | – | – | 42% at 1 μM
13 | CC(C)NC1Cc2cc(Cl)ccc2-n2c(nnc2C2CC(F)(F)C2)C1 (stereo not drawn) [Example 41, 8-chloro-1-(3,3-difluorocyclobutyl)-N-(propan-2-yl)-5,6-dihydro-4H-[1,2,4]triazolo[4,3-a][1]benzazepine-5-amine] | – | 600 nM | –
